Laboratory results reported in patent US20240148820A1 (priority 2021, published 2024).
Where no end group is shown, it is not given here.

Biological target: S protein of SARS-CoV-2 (Severe acute respiratory syndrome coronavirus 2, UniProt P0DTC2)
Type: binding

## IPLRGAFINGRWDSQCHRFS [U5]
  effect of U5 on P9R binding to S protein: not P9R binding to S protein
